From patent US20230414599A1, “NICOTINAMIDE, NICOTINAMIDE PRECURSORS AND NICOTINAMIDE METABOLITES AND COMPOSITIONS THEREOF FOR REDUCING THE TIME TO RESOLUTION OF SYMPTOMS IN PATIENTS WITH COVID-19 AND OTHER VIRAL INFECTIONS” (CONARIS RESEARCH INSTITUTE AG, priority 2020, published 2023)
Like-named read-outs stand apart in the source and are kept apart here.

System: COVID-19
Settings: 500 mg IR + 500 mg CICR-NAM daily; for Ability to perform normal activities, complaint scale 0-6, mean change / Ability to perform normal activities, complaint scale 0-6, median change: week 6 - baseline
[1] = week 4, current or former smokers, n = 75
[2] = week 4, patients with cough and fever, n = 15
[3] = week 4, patients with cough, n = 106
[4] = week 4, patients with fever, n = 21
[5] = week 4, ≥1 risk factor for severe COVID-19, n = 117
[6] = BMI ≥30.0 or type 2 diabetes, n = 27
[7] = current or former smokers, n = 75
[8] = patients with cough and fever, n = 15
[9] = ≥1 risk factor for severe COVID-19, n = 117
[10] = week 6, BMI ≥30.0 or type 2 diabetes, n = 27
[11] = week 6, current or former smokers, n = 75
[12] = week 6, patients with cough and fever, n = 15
[13] = week 6, patients with cough, n = 106
[14] = week 6, patients with fever, n = 21
[15] = week 6, ≥1 risk factor for severe COVID-19, n = 117

## NC(=O)c1cccnc1 [Nicotinamide, nicotinamide]
[1]
  Ability to perform normal activities worse vs baseline, % of patients: 6.67%
  Ability to perform normal activities worse vs baseline, patients: 5
  Ability to perform normal activities, complaint scale 0-6, mean: 0.920
  Ability to perform normal activities, complaint scale 0-6, median: 0.000
  Reduced physical performance constant vs baseline, % of patients: 38.67%
  Reduced physical performance constant vs baseline, patients: 29
  Reduced physical performance improved vs baseline, % of patients: 56.00%
  Reduced physical performance improved vs baseline, patients: 42
  Reduced physical performance worse vs baseline, % of patients: 5.33%
  Reduced physical performance worse vs baseline, patients: 4
[2]
  Ability to perform normal activities, complaint scale 0-6, mean: 1.200
  Ability to perform normal activities, complaint scale 0-6, median: 0.0
[3]
  Ability to perform normal activities, complaint scale 0-6, mean: 0.736
  Ability to perform normal activities, complaint scale 0-6, median: 0.0
[4]
  Ability to perform normal activities, complaint scale 0-6, mean: 1.048
  Ability to perform normal activities, complaint scale 0-6, median: 0.0
[5]
  Ability to perform normal activities constant vs baseline, % of patients: 8.55%
  Ability to perform normal activities constant vs baseline, patients: 10
  Ability to perform normal activities improved vs baseline, % of patients: 84.62%
  Ability to perform normal activities improved vs baseline, patients: 99
  Ability to perform normal activities worse vs baseline, % of patients: 6.84%
  Ability to perform normal activities worse vs baseline, patients: 8
  Ability to perform normal activities, complaint scale 0-6, mean: 0.880
  Ability to perform normal activities, complaint scale 0-6, median: 0.0
  Reduced physical performance constant vs baseline, % of patients: 47.86%
  Reduced physical performance constant vs baseline, patients: 56
  Reduced physical performance improved vs baseline, % of patients: 47.01%
  Reduced physical performance improved vs baseline, patients: 55
  Reduced physical performance worse vs baseline, % of patients: 5.13%
  Reduced physical performance worse vs baseline, patients: 6
[6]
  Ability to perform normal activities, complaint scale 0-6, mean change: −1.741
  Ability to perform normal activities, complaint scale 0-6, median change: −2.000
[7]
  Ability to perform normal activities, complaint scale 0-6, mean change: −2.587
  Ability to perform normal activities, complaint scale 0-6, median change: −3.000
[8]
  Ability to perform normal activities, complaint scale 0-6, mean change: −2.933
  Ability to perform normal activities, complaint scale 0-6, median change: −3.0
Patients with cough, n = 106
  Ability to perform normal activities, complaint scale 0-6, mean change: −2.255
  Ability to perform normal activities, complaint scale 0-6, median change: −2.0
Patients with fever, n = 21
  Ability to perform normal activities, complaint scale 0-6, mean change: −3.238
  Ability to perform normal activities, complaint scale 0-6, median change: −4.0
[9]
  Ability to perform normal activities, complaint scale 0-6, mean change: −2.419
  Ability to perform normal activities, complaint scale 0-6, median change: −3.0
[10]
  Ability to perform normal activities constant vs baseline, % of patients: 11.11%
  Ability to perform normal activities constant vs baseline, patients: 3
  Ability to perform normal activities improved vs baseline, % of patients: 74.07%
  Ability to perform normal activities improved vs baseline, patients: 20
  Ability to perform normal activities worse vs baseline, % of patients: 14.81%
  Ability to perform normal activities worse vs baseline, patients: 4
  Ability to perform normal activities, complaint scale 0-6, mean: 1.296
  Ability to perform normal activities, complaint scale 0-6, median: 1.000
  Cough complaint scale 0-6, mean: 0.370
  Cough complaint scale 0-6, median: 0.000
[11]
  Ability to perform normal activities constant vs baseline, % of patients: 12.00%
  Ability to perform normal activities constant vs baseline, patients: 9
  Ability to perform normal activities improved vs baseline, % of patients: 82.67%
  Ability to perform normal activities improved vs baseline, patients: 62
  Ability to perform normal activities worse vs baseline, % of patients: 5.33%
  Ability to perform normal activities worse vs baseline, patients: 4
  Ability to perform normal activities, complaint scale 0-6, mean: 0.787
  Ability to perform normal activities, complaint scale 0-6, median: 0.000
  Presence of cough constant vs baseline, % of patients: 54.67%
  Presence of cough constant vs baseline, patients: 41
  Presence of cough improved vs baseline, % of patients: 42.67%
  Presence of cough improved vs baseline, patients: 32
  Presence of cough worse vs baseline, % of patients: 2.67%
  Presence of cough worse vs baseline, patients: 2
  Reduced physical performance constant vs baseline, % of patients: 38.67%
  Reduced physical performance constant vs baseline, patients: 29
  Reduced physical performance improved vs baseline, % of patients: 56.00%
  Reduced physical performance improved vs baseline, patients: 42
  Reduced physical performance worse vs baseline, % of patients: 5.33%
  Reduced physical performance worse vs baseline, patients: 4
[12]
  Ability to perform normal activities, complaint scale 0-6, mean: 1.067
  Ability to perform normal activities, complaint scale 0-6, median: 0.0
[13]
  Ability to perform normal activities, complaint scale 0-6, mean: 0.660
  Ability to perform normal activities, complaint scale 0-6, median: 0.0
[14]
  Ability to perform normal activities, complaint scale 0-6, mean: 0.762
  Ability to perform normal activities, complaint scale 0-6, median: 0.0
[15]
  Ability to perform normal activities constant vs baseline, % of patients: 11.97%
  Ability to perform normal activities constant vs baseline, patients: 14
  Ability to perform normal activities improved vs baseline, % of patients: 82.05%
  Ability to perform normal activities improved vs baseline, patients: 96
  Ability to perform normal activities worse vs baseline, % of patients: 5.98%
  Ability to perform normal activities worse vs baseline, patients: 7
  Ability to perform normal activities, complaint scale 0-6, mean: 0.769
  Ability to perform normal activities, complaint scale 0-6, median: 0.0
  Fatigue constant vs baseline, % of patients: 38.46%
  Fatigue constant vs baseline, patients: 45
  Fatigue improved vs baseline, % of patients: 59.83%
  Fatigue improved vs baseline, patients: 70
  Fatigue worse vs baseline, % of patients: 1.71%
  Fatigue worse vs baseline, patients: 2
  Reduced physical performance constant vs baseline, % of patients: 40.17%
  Reduced physical performance constant vs baseline, patients: 47
  Reduced physical performance improved vs baseline, % of patients: 54.70%
  Reduced physical performance improved vs baseline, patients: 64
  Reduced physical performance worse vs baseline, % of patients: 5.13%
  Reduced physical performance worse vs baseline, patients: 6
